Experimental data taken from publication PMC7211202 (Investigational New Drugs, 2019).
Values joined by “and” are separate entries in the source; they are usually repeats but may differ in a detail not shown here. Equal values may be shown once. “Also recorded” adds a separate entry of the source.

How the values were obtained:
[1] = system: P53WT solid tumors or multiple myeloma; test: Tumor response (RECIST 1.1, Macdonald, IMWG criteria); format: in vivo, human
Protocol: Efficacy response was assessed using revised Response Evaluation Criteria in Solid Tumors (RECIST), version 1.1 [25] Macdonald criteria for GBM [26] or International Myeloma Working Group (IMWG) response criteria for multiple myeloma.

[2] = system: MDM2-amplified tumors; settings: cited from earlier work
[3] = Dose-limiting toxicities and maximum tolerated dose; format: in vivo
Protocol: This open-label phase 1 study was conducted at 16 centers (ClinicalTrials.gov, NCT01723020). TP53 mutation status was confirmed by central laboratory assessment. The study was planned with two parts: a 3-part dose escalation (Part 1) and a dose expansion (Part 2). […] Intermediate doses were allowed when deemed appropriate. The dose expansion was planned for patients with MDM2-amplified tumors (group 1; liposarcomas, GBM, and other solid tumors), potentially MDM2-overexpressing tumors (group 2; ER+ metastatic breast cancer), or multiple myeloma (group 3).
Each patient was monitored for 21 days for the occurrence of dose-limiting toxicities (DLTs), defined as febrile neutropenia, neutropenic infection, grade 4 neutropenia lasting >7 days, grade ≥ 3 thrombocytopenia lasting >7 days (solid tumors only), grade 3 thrombocytopenia with grade ≥ 2 bleeding (solid tumors only), grade 3 or 4 thrombocytopenia with grade > 1 bleeding (multiple myeloma only), grade 4 thrombocytopenia (solid tumors only), or grade 4 thrombocytopenia lasting >14 days (multiple myeloma only), or as grade ≥ 3 nausea, vomiting, or diarrhea after support; grade 3 fatigue lasting >7 days; any other grade ≥ 3 adverse event (AE); grade ≥ 3 kidney injury (multiple myeloma only), or treatment-related AEs not returning to grade ≤ 1 (solid tumors only) per Common Terminology Criteria for Adverse Events (CTCAE), version 4.0. […] Treatment continued until disease progression, intolerable toxicity, or withdrawal of consent.

[4] = system: MDM2-p53 interaction; settings: cited from earlier work
[5] = 240-mg dose expansion, ER + PR+ breast cancer
[6] = 240-mg dose expansion, ER + PR– breast cancer
[7] = 240-mg dose expansion, breast cancer
[8] = 240-mg dose expansion, multiple myeloma
[9] = 240-mg dose expansion, other solid tumors

Structure (SMILES): CC(C)[C@@H](CS(=O)(=O)C(C)C)N1C(=O)[C@@](C)(CC(=O)O)C[C@H](c2cccc(Cl)c2)[C@H]1c1ccc(Cl)cc1 [AMG 232]
- Stable disease as a best result ([1]; 240-mg dose expansion, DDLPS): 7 of 10
- median duration of stable disease ([1]; 240-mg dose expansion, DDLPS): 2.0 months
- duration of stable disease, range [1, 5]: 0.9–4.0 months
- median duration of stable disease [1, 5]: 2.0 months
- duration of stable disease, range [1, 6]: 0.9–3.8 months
- median duration of stable disease [1, 6]: 1.4 months
- Stable disease as a best result ([1]; 240-mg dose expansion, GBM): six of 10 and 6 of 10
- median duration of stable disease ([1]; 240-mg dose expansion, GBM): 1.8 months
- duration of stable disease, range ([1]; 240-mg dose expansion, WDLPS): 1.9–6.1 months
- median duration of stable disease ([1]; 240-mg dose expansion, WDLPS): 3.9 months
- Stable disease as a best result [1, 7]: 7 of 12
- duration of stable disease, range [1, 7]: 1.7–4.0 months
- median duration of stable disease [1, 7]: 1.4–2.0 months and 2.0 months
- Stable disease as a best result [1, 8]: 5 of 10
- duration of stable disease, range [1, 8]: 1.2–2.0 months
- Stable disease as a best result [1, 9]: 10 of 16
- median duration of stable disease [1, 9]: 3.3 months
- Patients with progressive disease ([1]; 240-mg dose expansion, overall): 15 (22%) n (%)
- Patients with stable disease ([1]; 240-mg dose expansion, overall): 45 (66%) n (%)
- duration of stable disease, range ([1]; 240-mg dose expansion, overall): 0.5–12.9 months
- median duration of stable disease ([1]; 240-mg dose expansion, overall): 2.0 months
- Patients with unconfirmed partial responses ([1]; central evaluation): 4%
- Duration of unconfirmed partial response ([1]; central evaluation, patient with WDLPS): 2.4 months
- Duration of unconfirmed partial response ([1]; central evaluation, patient with breast cancer): 2.0 months
- Duration of unconfirmed partial response ([1]; central evaluation, patient with squamous cell carcinoma): 0.1 months
- Patients with stable disease ([1]; dose escalation): 31 (80%) n (%)
- duration of stable disease, range ([1]; dose escalation): 0.7–22.4 mo
- median duration of stable disease ([1]; dose escalation): 3.1 months
- Patients with non-complete response/non-progressive disease ([1]; dose escalation, based on non-target lesions): 2 (5%) n (%)
- Objective responses ([1]; local evaluation, dose escalation and expansion): no responses; also recorded: no objective response
- effect of treatment in tumor xenograft models [2]: tumor growth inhibition
- effect on MDM2-amplified tumors in xenograft models ([2]; through induction of growth arrest and apoptosis): regression
- DLT observed ([3]; 120-mg cohort, patient with esophageal cancer): grade 3 thrombocytopenia on day 15 that worsened to grade 4 on day 17
- Additional patients with cytopenias (grade 4 neutropenia; grade 4 thrombocytopenia) outside of the 21-day DLT evaluation window ([3]; 300-mg cohort): Two
- DLT observed ([3]; 360-mg cohort, patient with rectal cancer): grade 4 thrombocytopenia on day 28
- DLT observed ([3]; 480-mg cohort, patient with head and neck cancer): grade 3 neutropenia on day 22 that delayed treatment in the next cycle
- highest safe and tolerable dose ([3]; DLTs and delayed cytopenias considered, QD 7 days Q3W): 240 mg
- MTD (protocol-specified definition using DLTs incidence) ([3]; QD for 7 days Q3W, doses up to 480 mg): not reached
- Patients with DLTs ([3]; dose escalation): Three
- affinity of blocking the MDM2-p53 interaction [4]: picomolar
